Data: ChEMBL document CHEMBL1201862, “PubChem BioAssay data set” (2004)
Values belong to the compound of their own block, whether it stands above or below them. The source made the active and inactive calls.

Assays:
[1] = molecular target: T1, Apoptotic protease-activating factor 1 (Homo sapiens, UniProt O14727); type: functional
T1 sequence (O14727 whole entry): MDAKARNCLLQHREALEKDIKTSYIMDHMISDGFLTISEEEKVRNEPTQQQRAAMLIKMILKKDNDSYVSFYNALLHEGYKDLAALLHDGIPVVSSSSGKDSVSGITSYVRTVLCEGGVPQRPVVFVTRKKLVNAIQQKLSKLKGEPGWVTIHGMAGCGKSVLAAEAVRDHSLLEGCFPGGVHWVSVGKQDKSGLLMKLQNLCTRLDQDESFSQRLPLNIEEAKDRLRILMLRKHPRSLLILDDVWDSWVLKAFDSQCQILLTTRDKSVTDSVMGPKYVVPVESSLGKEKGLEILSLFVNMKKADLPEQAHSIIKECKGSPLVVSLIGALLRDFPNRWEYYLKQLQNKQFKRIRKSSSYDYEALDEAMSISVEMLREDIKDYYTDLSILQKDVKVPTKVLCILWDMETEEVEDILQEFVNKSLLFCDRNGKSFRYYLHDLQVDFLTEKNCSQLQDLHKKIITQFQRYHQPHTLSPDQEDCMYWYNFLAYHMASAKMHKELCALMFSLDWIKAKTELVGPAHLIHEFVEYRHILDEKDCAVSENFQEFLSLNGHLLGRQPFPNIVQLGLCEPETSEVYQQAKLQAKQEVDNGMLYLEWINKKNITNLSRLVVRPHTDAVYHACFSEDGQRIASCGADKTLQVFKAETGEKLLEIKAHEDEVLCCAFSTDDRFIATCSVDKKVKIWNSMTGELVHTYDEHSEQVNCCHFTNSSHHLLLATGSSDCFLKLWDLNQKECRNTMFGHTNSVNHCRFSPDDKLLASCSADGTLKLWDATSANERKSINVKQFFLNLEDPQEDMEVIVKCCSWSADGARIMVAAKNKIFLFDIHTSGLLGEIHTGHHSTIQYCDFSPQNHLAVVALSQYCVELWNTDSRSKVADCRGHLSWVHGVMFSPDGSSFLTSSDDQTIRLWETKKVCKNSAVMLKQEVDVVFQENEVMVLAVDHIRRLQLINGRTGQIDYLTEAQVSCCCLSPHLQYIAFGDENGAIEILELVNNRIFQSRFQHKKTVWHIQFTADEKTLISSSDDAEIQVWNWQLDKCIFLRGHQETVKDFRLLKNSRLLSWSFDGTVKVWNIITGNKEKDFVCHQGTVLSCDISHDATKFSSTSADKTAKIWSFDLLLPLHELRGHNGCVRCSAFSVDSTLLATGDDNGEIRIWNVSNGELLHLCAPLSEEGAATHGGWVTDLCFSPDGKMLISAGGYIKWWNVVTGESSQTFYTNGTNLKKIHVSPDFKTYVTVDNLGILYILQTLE

Caspase-8 = Caspase-8 (Homo sapiens, UniProt Q14790); assay: inhibitors of purified CASP8 protease – biochemical, Z-IETD-R110 fluorescence, cherry-picked samples, selectivity assay for caspase-6 inhibitor project, dose response (AID 743294)
Caspase-8, sequence (Q14790 217-374 limits assumed): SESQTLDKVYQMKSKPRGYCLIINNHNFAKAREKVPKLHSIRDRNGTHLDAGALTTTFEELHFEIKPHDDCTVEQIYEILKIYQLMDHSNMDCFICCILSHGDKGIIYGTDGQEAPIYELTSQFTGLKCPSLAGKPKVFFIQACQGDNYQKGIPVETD
Caspase-8, sequence (Q14790 385-479 limits assumed): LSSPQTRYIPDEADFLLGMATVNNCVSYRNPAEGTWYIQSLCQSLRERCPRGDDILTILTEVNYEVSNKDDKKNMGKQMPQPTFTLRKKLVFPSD

Caspase-9 = Caspase-9 (Homo sapiens, UniProt P55211); assay: inhibitors of purified CASP9 protease – biochemical, fluorescence, plate reader, cherry-picked samples, selectivity assay for caspase-6 inhibitor project, dose response (AID 743293)
Caspase-9, sequence (P55211 1-315 limits assumed): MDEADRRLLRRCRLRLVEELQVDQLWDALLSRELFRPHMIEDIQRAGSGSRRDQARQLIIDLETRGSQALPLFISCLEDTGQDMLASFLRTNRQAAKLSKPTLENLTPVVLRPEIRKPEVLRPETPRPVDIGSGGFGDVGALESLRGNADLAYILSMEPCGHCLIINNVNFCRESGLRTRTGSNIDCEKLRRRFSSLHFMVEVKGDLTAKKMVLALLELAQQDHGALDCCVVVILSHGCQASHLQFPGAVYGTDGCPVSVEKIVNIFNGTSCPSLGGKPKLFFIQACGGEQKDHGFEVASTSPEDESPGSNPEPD
Caspase-9, sequence (P55211 331-416 limits assumed): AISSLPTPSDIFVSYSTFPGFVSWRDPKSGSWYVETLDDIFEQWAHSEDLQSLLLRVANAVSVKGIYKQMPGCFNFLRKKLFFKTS

Caspase-7 = Caspase-7 (Homo sapiens, UniProt P55210); assay: caspase-7 enzyme inhibition, selectivity check – biochemical, DEVD-R110 fluorescence, cherry-pick, selectivity assay for caspase-6 inhibitor project, dose response (AID 743295); type: functional
Caspase-7, sequence (P55210 24-198 limits assumed): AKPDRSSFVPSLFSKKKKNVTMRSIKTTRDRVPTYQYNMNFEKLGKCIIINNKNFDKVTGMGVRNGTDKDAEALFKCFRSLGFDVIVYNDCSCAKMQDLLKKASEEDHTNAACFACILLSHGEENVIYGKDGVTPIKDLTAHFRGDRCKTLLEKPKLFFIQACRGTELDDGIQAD
Caspase-7, sequence (P55210 207-303 limits assumed): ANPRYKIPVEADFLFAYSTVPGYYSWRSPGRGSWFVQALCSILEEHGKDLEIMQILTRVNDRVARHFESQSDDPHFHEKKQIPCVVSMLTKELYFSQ

[2] = molecular target: T2, Mannose-6-phosphate isomerase (Homo sapiens, UniProt P34949); assay: MPI inhibition at elevated mannose 6-phosphate – biochemical, fluorescence intensity, high mannose 6-phosphate, primary screen (AID 1220)
T2 sequence (P34949 whole entry): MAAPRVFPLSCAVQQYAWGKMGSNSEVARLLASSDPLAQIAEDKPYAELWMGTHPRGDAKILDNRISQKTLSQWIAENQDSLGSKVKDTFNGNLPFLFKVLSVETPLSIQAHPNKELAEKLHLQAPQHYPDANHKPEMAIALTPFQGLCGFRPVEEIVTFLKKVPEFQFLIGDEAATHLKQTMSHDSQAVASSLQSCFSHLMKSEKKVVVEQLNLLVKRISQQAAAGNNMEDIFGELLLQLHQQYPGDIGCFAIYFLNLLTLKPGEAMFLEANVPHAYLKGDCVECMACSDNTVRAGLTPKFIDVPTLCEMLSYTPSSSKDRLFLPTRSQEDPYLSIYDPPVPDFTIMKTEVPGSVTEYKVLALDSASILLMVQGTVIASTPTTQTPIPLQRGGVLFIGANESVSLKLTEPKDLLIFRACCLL

Caspase-6 = molecular target: T3, Caspase-6 (Homo sapiens, UniProt P55212); assay: inhibition of CASP6 peptide cleavage – biochemical, VEID-R110 fluorescence, cherry-pick, dose response (AID 720632)
T3 sequence (P55212 whole entry): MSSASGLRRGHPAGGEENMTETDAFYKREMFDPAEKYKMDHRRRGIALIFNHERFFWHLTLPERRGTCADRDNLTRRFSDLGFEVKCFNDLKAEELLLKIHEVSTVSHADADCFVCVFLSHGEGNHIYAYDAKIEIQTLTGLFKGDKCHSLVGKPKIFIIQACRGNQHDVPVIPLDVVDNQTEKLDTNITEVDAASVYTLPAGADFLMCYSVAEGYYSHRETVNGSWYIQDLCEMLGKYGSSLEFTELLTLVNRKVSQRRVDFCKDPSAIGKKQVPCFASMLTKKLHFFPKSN

[3] = molecular target: Induced myeloid leukemia cell differentiation protein Mcl-1 (Homo sapiens, UniProt Q07820); type: functional
Genome polyprotein = Genome polyprotein (dengue virus type 2, UniProt P29990); assay: flavivirus cap methylation enzyme inhibition – biochemical, confirmation dose response, primary screen (AID 588689); type: functional
Genome polyprotein, sequence (P29990 2492-3391 limits assumed): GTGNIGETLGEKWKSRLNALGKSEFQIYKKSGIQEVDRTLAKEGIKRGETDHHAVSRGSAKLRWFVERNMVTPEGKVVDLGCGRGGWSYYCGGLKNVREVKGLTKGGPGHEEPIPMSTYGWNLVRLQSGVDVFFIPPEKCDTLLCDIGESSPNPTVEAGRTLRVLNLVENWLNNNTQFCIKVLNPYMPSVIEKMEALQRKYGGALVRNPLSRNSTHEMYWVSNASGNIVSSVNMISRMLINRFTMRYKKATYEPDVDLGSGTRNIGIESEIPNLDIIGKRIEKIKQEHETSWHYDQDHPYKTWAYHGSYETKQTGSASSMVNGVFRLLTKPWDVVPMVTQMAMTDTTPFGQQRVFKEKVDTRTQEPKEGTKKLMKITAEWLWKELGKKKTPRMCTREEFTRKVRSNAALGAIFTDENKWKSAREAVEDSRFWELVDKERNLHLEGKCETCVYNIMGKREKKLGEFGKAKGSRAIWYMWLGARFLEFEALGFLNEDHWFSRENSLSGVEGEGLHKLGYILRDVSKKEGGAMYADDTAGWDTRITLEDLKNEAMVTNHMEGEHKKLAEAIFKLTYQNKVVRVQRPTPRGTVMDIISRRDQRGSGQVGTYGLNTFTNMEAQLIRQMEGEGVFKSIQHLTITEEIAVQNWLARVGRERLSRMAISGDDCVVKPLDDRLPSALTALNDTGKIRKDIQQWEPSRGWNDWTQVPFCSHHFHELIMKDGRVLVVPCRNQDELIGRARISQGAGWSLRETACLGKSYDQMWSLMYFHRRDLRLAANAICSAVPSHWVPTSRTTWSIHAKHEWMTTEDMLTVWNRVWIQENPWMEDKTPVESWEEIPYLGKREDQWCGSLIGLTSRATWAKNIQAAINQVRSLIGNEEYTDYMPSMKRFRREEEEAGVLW

[4] = molecular target: Glutathione-S-transferase (Schistosoma japonicum, UniProt Q26513); assay: GST-antibody interaction or FRET quenching – biochemical, TR-FRET, artefact control for Vif-APOBEC3G degradation inhibitor project, dose response (AID 1117362); type: functional
Glutathione-S-transferase, sequence (Q26513 whole entry): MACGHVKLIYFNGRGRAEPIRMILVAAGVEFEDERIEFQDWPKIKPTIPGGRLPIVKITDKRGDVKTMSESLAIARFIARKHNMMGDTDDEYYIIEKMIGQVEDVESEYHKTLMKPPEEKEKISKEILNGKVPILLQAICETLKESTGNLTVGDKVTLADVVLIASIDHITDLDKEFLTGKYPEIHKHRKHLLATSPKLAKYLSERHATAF

[5] = molecular target: Tyrosyl-DNA phosphodiesterase 2 (Homo sapiens, UniProt O95551); assay: potency against TDP2 phosphodiesterase activity – biochemical, epi absorbance, IC50, dose response (AID 743297)
Tyrosyl-DNA phosphodiesterase 2, sequence (O95551 whole entry): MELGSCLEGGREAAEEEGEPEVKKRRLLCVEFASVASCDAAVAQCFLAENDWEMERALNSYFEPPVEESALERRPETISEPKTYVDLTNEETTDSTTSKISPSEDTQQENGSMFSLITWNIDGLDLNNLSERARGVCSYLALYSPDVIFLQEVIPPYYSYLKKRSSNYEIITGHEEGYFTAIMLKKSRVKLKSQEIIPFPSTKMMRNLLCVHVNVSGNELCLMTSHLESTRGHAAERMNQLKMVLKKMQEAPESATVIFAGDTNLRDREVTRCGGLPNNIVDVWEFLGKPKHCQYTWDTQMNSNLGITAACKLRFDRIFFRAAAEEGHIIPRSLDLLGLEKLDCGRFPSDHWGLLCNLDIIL

[6] = molecular target: RNA-editing ligase 1, mitochondrial (Trypanosoma brucei brucei, UniProt P86926); assay: inhibition of trypanosome RNA editing ligase – biochemical, fluorescence, Trypanosoma brucei, dose response (AID 1117295); type: functional
RNA-editing ligase 1, mitochondrial, sequence (P86926 whole entry, the tested form may be a part): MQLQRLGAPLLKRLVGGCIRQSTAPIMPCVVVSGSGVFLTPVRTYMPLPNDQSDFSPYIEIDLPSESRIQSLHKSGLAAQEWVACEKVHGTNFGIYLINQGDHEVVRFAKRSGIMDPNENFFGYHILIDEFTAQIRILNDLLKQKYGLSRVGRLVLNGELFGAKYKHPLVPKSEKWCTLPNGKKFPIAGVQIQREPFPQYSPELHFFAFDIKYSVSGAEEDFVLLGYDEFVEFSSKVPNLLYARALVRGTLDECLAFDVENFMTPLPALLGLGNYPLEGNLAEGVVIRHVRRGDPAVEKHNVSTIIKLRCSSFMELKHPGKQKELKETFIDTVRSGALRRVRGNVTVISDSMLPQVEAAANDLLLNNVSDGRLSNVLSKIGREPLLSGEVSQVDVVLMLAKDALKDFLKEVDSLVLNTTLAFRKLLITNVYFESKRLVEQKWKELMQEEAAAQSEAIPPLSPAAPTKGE

[7] = molecular target: T4, Oxysterols receptor LXR-beta (Homo sapiens, UniProt P55055); assay: LXR agonists, Gal4 luciferase reporter, dose response, counter-screen for ssDAF-12 agonist project, cell-based, luminescence, HEK293, S. stercoralis campaign (AID 720737); type: functional; details: read-out: IC50 (the source's name)
T4 sequence (P55055 whole entry): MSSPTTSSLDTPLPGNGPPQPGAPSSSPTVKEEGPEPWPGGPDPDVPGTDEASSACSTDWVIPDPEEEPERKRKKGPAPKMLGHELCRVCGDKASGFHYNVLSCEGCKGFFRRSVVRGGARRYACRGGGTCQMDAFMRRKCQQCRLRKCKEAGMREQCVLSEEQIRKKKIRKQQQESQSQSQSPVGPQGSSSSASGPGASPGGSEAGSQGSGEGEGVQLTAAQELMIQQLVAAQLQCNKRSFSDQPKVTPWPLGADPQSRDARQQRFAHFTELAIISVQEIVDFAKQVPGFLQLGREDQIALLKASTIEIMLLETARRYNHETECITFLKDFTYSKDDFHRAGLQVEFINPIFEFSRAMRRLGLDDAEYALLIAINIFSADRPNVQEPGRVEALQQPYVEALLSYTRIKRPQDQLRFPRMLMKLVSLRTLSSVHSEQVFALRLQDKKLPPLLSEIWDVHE

[8] = molecular target: T4, Oxysterols receptor LXR-beta; type: functional, cell-based
[9] = Luminescence-based cell-based high throughput dose response assay to identify activators of the DAF-12 from the parasite S. stercoralis (ssDAF-12).; type: functional
[10] = molecular target: Luciferin 4-monooxygenase (Photinus pyralis, UniProt P08659); assay: Counter Screen for Luciferase-based Assay Positives. [Related pubchem assays: 620, 618, 411 ]
Luciferin 4-monooxygenase, sequence (P08659 whole entry): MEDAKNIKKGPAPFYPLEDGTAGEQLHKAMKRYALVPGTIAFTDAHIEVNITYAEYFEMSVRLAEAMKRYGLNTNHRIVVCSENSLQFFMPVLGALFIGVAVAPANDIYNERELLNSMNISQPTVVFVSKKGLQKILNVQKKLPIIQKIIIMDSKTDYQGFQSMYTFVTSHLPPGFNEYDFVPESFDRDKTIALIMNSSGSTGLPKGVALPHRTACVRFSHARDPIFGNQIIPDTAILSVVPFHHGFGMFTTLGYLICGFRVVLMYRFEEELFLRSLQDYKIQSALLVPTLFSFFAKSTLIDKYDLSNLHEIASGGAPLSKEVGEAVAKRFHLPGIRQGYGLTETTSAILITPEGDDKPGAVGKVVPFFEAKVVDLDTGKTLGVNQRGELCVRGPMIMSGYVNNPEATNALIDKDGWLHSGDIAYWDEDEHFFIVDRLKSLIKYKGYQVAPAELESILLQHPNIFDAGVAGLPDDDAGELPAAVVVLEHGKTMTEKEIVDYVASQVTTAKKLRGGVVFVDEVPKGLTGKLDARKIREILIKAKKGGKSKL

HT-1080 = assay: HT1080 cell viability loss – fluorescence readout (AID 620); type: functional, cell-based; details: Homo sapiens
[11] = molecular target: Protein-tyrosine kinase 2-beta (Homo sapiens, UniProt Q14289);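 further: potency of inhibitors of PYK2 kinase phosphorylation of poly-GT substrate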
Protein-tyrosine kinase 2-beta, sequence (Q14289 whole entry, the tested form may be a part): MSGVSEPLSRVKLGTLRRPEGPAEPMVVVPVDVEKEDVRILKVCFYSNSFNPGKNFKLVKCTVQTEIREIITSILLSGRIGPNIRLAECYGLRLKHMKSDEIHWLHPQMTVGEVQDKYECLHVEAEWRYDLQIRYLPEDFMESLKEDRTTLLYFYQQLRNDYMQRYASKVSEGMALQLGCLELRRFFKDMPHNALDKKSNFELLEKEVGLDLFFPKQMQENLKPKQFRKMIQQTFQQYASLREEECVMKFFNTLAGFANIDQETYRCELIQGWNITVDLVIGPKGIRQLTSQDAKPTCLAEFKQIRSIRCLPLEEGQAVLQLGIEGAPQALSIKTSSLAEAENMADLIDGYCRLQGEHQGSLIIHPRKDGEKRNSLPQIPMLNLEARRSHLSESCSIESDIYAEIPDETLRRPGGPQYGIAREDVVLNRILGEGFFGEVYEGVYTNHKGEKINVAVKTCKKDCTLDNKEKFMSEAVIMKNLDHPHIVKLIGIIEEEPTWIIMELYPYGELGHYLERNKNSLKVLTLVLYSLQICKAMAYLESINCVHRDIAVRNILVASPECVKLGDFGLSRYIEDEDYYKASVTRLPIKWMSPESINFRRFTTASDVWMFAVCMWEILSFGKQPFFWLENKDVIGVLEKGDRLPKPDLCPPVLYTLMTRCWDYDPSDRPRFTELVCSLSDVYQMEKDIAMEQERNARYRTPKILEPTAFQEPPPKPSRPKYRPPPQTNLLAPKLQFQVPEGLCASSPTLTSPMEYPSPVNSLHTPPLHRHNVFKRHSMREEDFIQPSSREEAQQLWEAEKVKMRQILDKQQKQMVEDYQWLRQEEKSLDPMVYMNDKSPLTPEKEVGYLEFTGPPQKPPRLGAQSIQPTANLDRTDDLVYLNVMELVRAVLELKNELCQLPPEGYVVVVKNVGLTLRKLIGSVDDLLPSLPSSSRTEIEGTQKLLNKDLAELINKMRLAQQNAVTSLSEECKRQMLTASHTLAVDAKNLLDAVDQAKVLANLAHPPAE

Estrogen receptor = molecular target: T5, Estrogen receptor (Homo sapiens, UniProt P03372); assay: ERα coactivator recruitment enhancers – biochemical, TR-FRET, ERα LBD, dose response (AID 737)
T5 sequence (P03372 whole entry): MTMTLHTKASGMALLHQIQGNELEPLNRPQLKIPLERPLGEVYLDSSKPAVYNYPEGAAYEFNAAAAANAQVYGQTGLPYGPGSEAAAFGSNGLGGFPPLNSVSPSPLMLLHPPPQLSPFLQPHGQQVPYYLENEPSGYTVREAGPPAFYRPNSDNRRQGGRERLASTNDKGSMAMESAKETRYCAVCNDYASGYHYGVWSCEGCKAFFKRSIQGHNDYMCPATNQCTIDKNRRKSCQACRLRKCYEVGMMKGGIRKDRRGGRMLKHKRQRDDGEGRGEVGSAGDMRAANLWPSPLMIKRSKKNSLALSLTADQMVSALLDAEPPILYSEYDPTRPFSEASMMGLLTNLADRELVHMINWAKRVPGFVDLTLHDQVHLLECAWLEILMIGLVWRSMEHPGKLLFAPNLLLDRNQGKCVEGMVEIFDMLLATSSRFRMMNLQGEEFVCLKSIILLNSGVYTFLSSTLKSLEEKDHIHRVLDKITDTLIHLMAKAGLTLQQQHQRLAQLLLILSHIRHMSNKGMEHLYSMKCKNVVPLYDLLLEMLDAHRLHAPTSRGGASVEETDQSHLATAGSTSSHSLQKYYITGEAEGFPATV

Fibrinogen beta chain [12] = molecular target: T6, Fibrinogen beta chain (Homo sapiens, UniProt P02675); assay: Fluorescence polarization-based biochemical high throughput dose response assay to identify inhibitors that disrupt the binding of a cyclic peptide (Tn6) to the fibrin proteolytic product D-Dimer and fragment E complex [DD(E )].
T6 sequence (P02675 whole entry, the tested form may be a part): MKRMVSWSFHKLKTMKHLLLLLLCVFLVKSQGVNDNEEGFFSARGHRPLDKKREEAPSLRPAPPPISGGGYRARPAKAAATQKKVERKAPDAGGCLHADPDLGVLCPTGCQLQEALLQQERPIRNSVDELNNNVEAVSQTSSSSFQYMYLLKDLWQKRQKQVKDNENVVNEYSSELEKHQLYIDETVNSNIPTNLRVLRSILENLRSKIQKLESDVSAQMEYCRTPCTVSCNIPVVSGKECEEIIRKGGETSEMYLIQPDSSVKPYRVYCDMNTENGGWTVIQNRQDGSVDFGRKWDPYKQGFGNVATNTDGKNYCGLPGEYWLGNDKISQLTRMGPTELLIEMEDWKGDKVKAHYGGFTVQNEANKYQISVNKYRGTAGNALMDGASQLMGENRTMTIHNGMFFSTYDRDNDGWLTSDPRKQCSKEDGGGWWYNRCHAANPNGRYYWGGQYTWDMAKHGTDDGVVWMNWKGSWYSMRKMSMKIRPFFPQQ

Fibrinogen beta chain [13] = molecular target: T6, Fibrinogen beta chain; assay: Fluorescence polarization-based biochemical high throughput dose response assay to identify inhibitors that disrupt the binding of a cyclic peptide (Tn7) to the fibrin proteolytic product D-Dimer and fragment E complex [DD(E )].
[14] = MITF Orthogonal Assay: SK-MEL-5 CTG Assay Measured in Cell-Based System Using Plate Reader - 2084-02_Inhibitor_Dose_DryPowder_Activity_Set7.; type: functional
[15] = inhibitors of TRPM1-promoter reporter in SK-MEL-5 – cell-based, luciferase, dry powder, set 8, MITF inhibitor project, dose response (AID 624430); type: functional
[16] = growth inhibition of SK-MEL-5 melanoma cells – cell-based, CellTiter-Glo luminescence, dry powder, set 8, orthogonal assay for MITF inhibitor project, dose response (AID 651586); type: functional
[17] = growth inhibition of MALME3 cells – cell-based, CellTiter-Glo luminescence, dry powder, set 5, orthogonal assay for MITF inhibitor project, dose response (AID 651584); type: functional; details: MALME-3
[18] = MITF Orthogonal Assay: MALME3 CTG Assay Measured in Cell-Based System Using Plate Reader - 2084-04_Inhibitor_Dose_DryPowder_Activity_Set6.; type: functional; details: MALME-3
[19] = cytotoxicity in MITF-independent A375 cells – cell-based, CellTiter-Glo luminescence, dry powder, set 9, counter-screen for MITF modulator project, dose response (AID 651591); type: functional; details: A-375
[20] = inhibitors of TRPM1-promoter reporter in SK-MEL-5 – cell-based, luciferase, dry powder, set 9, MITF inhibitor project, dose response (AID 651588); type: functional
[21] = MITF: Counter assay: A375 proliferation Measured in Cell-Based System Using Plate Reader - 2084-03_Inhibitor_Dose_DryPowder_Activity_Set8.; type: functional; details: A-375

IC50 [3]: 3.45 µM (not active)
IC50 (Genome polyprotein): 86.2 µM (active)
IC50 [4]: > 100 µM (active)
IC50 [5]: > 128 µM (inactive)
IC50 [6]: 28.4 µM (inactive)
AC50 (Caspase-6): 13.1 µM (active)
Compound: O=C(NCCCO)c1ccc2nc(-c3ccco3)c(-c3ccco3)nc2c1

IC50 (Fibrinogen beta chain [12]): > 83.3 µM (inactive)
IC50 (Fibrinogen beta chain [13]): > 83.3 µM (inactive)
Compound: O=C(COC(=O)c1cc(-c2cccc3ccccc23)nc2ccccc12)NC1CCS(=O)(=O)C1 (stereo not given)

The next lines start with the compound.

Compound: CCOc1c(O)ccc(/C=C2\SC(=S)NC2=O)c1[N+](=O)[O-]
IC50 [1]: 15.8 µM (active)
AC50 (Caspase-8): > 70 µM (inactive)
AC50 (Caspase-9): 53.6 µM (active)
AC50 (Caspase-7): 25.5 µM (active)
IC50 [2]: > 50 µM (not active)
AC50 (Caspase-6): 4.1 µM (active)

Compound: O=C1C(c2ccnc3ccccc23)=C(O)c2ccccc21
EC50 [7]: > 67.5 µM (inactive)
EC50 (cells): > 67.5 µM (inactive)
EC50 [8]: > 67.5 µM (inactive)
IC50 [9]: > 67.5 µM (inactive)
EC50 [10]: 0.78 µM (active)
EC50 (HT-1080): > 50 µM (not active)
IC50 [11]: 3.11 µM (active)
EC50 (Estrogen receptor): 6.74 µM (active)

Compound: O=C1C(Nc2cccc(Cl)c2)=C(N2CCCC2)C(=O)c2ccccc21
AC50 [14]: 5.52 µM (active)
AC50 [15]: 8.39 µM (active)
AC50 [16]: > 70 µM (inactive)
AC50 [17]: > 70 µM (inactive)
AC50 [18]: > 70 µM (inactive)
AC50 [19]: > 70 µM (inactive)
AC50 [20]: 46.8 µM (active)
AC50 [21]: > 70 µM (inactive)
